The source of these data is patent US20190119200A1, “TERTIARY AMIDES AND METHOD OF USE” (AbbVie Inc., priority 2016, published 2019).

The structures appear in SMILES notation.

In assay [1] the target is T1, LPAR1 (Homo sapiens, UniProt Q92633).
T1 construct: host or cells: U2OS
Put plainly: LPAR1 FLIPR Assay. Format: cell-based. The conditions noted are these: U2OS cells stably expressing LPAR1, LPA (EC80), Calcium 6 FLIPR dye; for Emax: read-out: Maximum Inhibition. In a few lines:
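Calcium flux read-out (515-575 nm, FLIPR) in LPAR1-expressing U2OS cells after LPA challenge at EC80, given 3 min after compound addition; cells carried Calcium 6 dye loaded 2 h at 37° C. Eleven-point 3-fold dilutions were fitted with a four-parameter Hill equation for IC50.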

Assay [2] concerns LPA-induced MCP-1 in NRK-49F cells. Description: LPA-induced MCP-1 AlphaLISA assay. Format: cell-based. The conditions noted are these: Rattus norvegicus, final LPA 10 μM, 7 hours; for Emax: read-out: Maximum Inhibition. The procedure: Two days prior to the experiment, NRK-49F cells were plated at 8,000 cells/well in 100 μL of growth medium [DMEM (Life Technologies #11995) with 5% dFBS (Life Technologies #30067-334), 100 units/mL penicillin/streptomycin (Life Technologies #15140122)] in 96-well clear flat bottom polystyrene TC-treated microplate (Corning® #3599) and incubated in humidified 10% CO2 at 37° C. One day prior to the experiment, the cell medium was removed and serum free medium [100 μL/well, DMEM (Life Technologies #11995) with 0.1% fatty acid free BSA (Sigma #A6003)] was added with continued incubation in humidified 10% CO2 at 37° C. overnight. On the day of the assay, test compounds were 1:3 serially diluted in 100% DMSO using a BioTek Precision™ system and then transferred (equivalent volume of DMSO as controls) to a plate in serum free medium [DMEM with 0.1% fatty acid free BSA] using a Biomek® NX workstation to give a 2× compound solution. The cell culture medium was removed, and cells were pre-treated with 50 μL/well of 2× compound in serum free medium [DMEM with 0.1% fatty acid free BSA] at 37° C. for 30 minutes. Following the incubation, 50 μL/well of 20 μM LPA diluted in serum free medium [DMEM with 0.1% fatty acid free BSA] was added to the cells. Serum free medium [DMEM with 0.1% fatty acid free BSA] was used as substitution for low control wells while 20 µM LPA was added to high control wells and test compound wells. 200 µM LPA was added to EC100 wells. Final DMSO concentration was 1% in every well. Final LPA concentration in test compound wells and high control wells was 10 μM. […] After the incubation, cell supernatant was transferred to a new 96 well polypropylene plate (Greiner #651201) where it was sealed and stored at −80° C. On the detection day, 5 μL of thawed cell supernatant was transferred to a new white opaque 384-well microplate (Perkin Elmer #6007299). An AlphaLISA® mouse/rat CCL2/MCP1, Immunoassay Research kit (PerkinElmer #AL509F) was used. A mixture (20 μL/well) of AlphaLISA® Anti-Analyte Accept beads (10 μg/mL final) and Biotinylated Antibody Anti-Analyte (freshly prepared, 1 nM final) was added. The mixture in the wells was mixed and then incubated at room temperature for 1 hour. Then SA-Donor beads (25 μL/well, 40 μg/mL final) were added giving a final volume of 50 μL/well. The contents of the wells were mixed and then incubated at room temperature for 0.5 hour (protect from light). The plate was read using the default Envision™ Alpha protocol (PerkinElmer). IC50 values were calculated from curve fits of the ratio data using a four-parameter logistic Hill equation (Assay Explorer 3.3 Client).

T1 sequence (Q92633 whole entry): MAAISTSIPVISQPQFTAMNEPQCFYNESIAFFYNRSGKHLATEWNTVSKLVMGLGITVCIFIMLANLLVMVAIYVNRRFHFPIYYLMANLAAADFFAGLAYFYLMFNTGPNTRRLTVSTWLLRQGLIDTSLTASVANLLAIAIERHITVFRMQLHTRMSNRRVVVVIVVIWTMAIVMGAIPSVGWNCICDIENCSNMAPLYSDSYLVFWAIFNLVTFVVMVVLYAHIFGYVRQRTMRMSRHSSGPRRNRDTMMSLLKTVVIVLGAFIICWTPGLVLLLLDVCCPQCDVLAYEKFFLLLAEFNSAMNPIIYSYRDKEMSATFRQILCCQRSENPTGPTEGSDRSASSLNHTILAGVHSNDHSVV

As to `COc1cc(OC)cc(C(=O)N(CCCCC(=O)O)CCCc2cc(F)cc(F)c2)c1` [Example 136, 5-{[3-(3,5-difluorophenyl)propyl](3,5-dimethoxybenzoyl)amino}pentanoic Acid], in assay [1], the IC50 was over 10000 nM and the Emax turned out to be 15%. Moreover, in assay [2], the IC50 was over 10000 nM and the Emax turned out to be 47%.

For `COc1cc(OC)cc(C(=O)N(CCCCC(=O)O)CCCc2c(F)cccc2F)c1` [Example 137, 5-{[3-(2,6-difluorophenyl)propyl](3,5-dimethoxybenzoyl)amino}pentanoic Acid], in assay [1], the IC50 came out at 92 nM and the Emax was determined as 64%. In assay [2], the IC50 is over 10000 nM and the Emax amounted to 28%.

As for `COc1cc(C(=O)N(CCCCC(=O)NS(=O)(=O)c2cccnc2)CCCc2ccccc2)cc(OC)c1C` [Example 142, 3,5-dimethoxy-4-methyl-N-{5-oxo-5-[(pyridine-3-sulfonyl)amino]pentyl}-N-(3-phenylpropyl)benzamide], in assay [1], the half-inhibitory concentration (IC50) stood at 76 nM and the Emax stood at 88%. In addition, in assay [2], the IC50 came to 831 nM and the Emax was determined as 90%.

With `COc1cc(C(=O)N(CCCCC(=O)NS(=O)(=O)c2ccncc2)CCCc2ccccc2)cc(OC)c1C` [Example 143, 3,5-dimethoxy-4-methyl-N-{5-oxo-5-[(pyridine-4-sulfonyl)amino]pentyl}-N-(3-phenylpropyl)benzamide], in assay [1], the concentration for half-maximal inhibition (IC50) is 81 nM and the Emax is 83%. In assay [2], the half-maximal inhibitory concentration (IC50) was found to be 1350 nM and the Emax stood at 66%.

Regarding `COc1cc(C(=O)N(CCCCC(=O)NS(=O)(=O)c2ccccc2)CCCc2ccccc2)cc(OC)c1C` [Example 144, N-{5-[(benzenesulfonyl)amino]-5-oxopentyl}-3,5-dimethoxy-4-methyl-N-(3-phenylpropyl)benzamide], in assay [1], the IC50 amounted to 99 nM and the Emax worked out at 92%. Besides, in assay [2], inhibition was half-maximal at 1090 nM (IC50) and the Emax stood at 96%.

Turning to `COc1cc(C(=O)N(CCCOC(=O)NS(=O)(=O)c2ccc(F)cc2)CCCc2ccccc2)cc(OC)c1C` [Example 145, 3-[(3,5-dimethoxy-4-methylbenzoyl)(3-phenylpropyl)amino]propyl (4-fluorobenzene-1-sulfonyl)carbamate], in assay [1], the 50% inhibitory concentration (IC50) is 437 nM and the Emax is 51%. Further, in assay [2], 3960 nM corresponded to half-maximal inhibition (IC50) and the Emax was determined as 59%.

As to `COc1cc(C(=O)N(CCCCC(=O)O)CCCc2ccc(F)cc2F)cc(OC)c1C` [Example 146, 5-{[3-(2,4-difluorophenyl)propyl](3,5-dimethoxy-4-methylbenzoyl)amino}pentanoic Acid], in assay [1], the half-inhibitory concentration (IC50) turned out to be 46 nM and the Emax was found to be 89%. In assay [2], the IC50 was 807 nM and the Emax came to 79%.

As to `COc1cc(OC)cc(C(=O)N(CCCCC(=O)O)CCCc2ccc(F)cc2)c1` [Example 148, 5-{(3,5-dimethoxybenzoyl)[3-(4-fluorophenyl)propyl]amino}pentanoic Acid], the IC50 in assay [1] and in assay [2] was over 10000 nM in each case. In addition, the figures for the Emax in assay [1] and in assay [2] were 47% and 40%, respectively.

`COc1cc(C(=O)N(CCCCC(=O)NS(=O)(=O)C(F)(F)F)CCCc2ccccc2)cc(OC)c1C` [Example 150, 3,5-dimethoxy-4-methyl-N-{5-oxo-5-[(trifluoromethanesulfonyl)amino]pentyl}-N-(3-phenylpropyl)benzamide]: in assay [1], the IC50 stood at 45 nM and the Emax was determined as 73%. Besides, in assay [2], inhibition was half-maximal at 2030 nM (IC50) and the Emax amounted to 67%.

On to `COc1ccc(C2(C(=O)N(CCCCC(=O)O)CCCc3ccccc3)CC(=O)C2)cc1` [Example 152, 5-{[1-(4-methoxyphenyl)-3-oxocyclobutane-1-carbonyl](3-phenylpropyl)amino}pentanoic Acid], for which, in assay [1], the concentration for half-maximal inhibition (IC50) is 85 nM and the Emax was 88%. Besides, in assay [2], 6170 nM corresponded to half-maximal inhibition (IC50) and the Emax came out at 64%.

For `COc1cc(C(=O)N(CCCc2ccccc2)CCCC(C)C(=O)NS(C)(=O)=O)cc(OC)c1C` (centres unmarked) [Example 161, N-{5-[(methanesulfonyl)amino]-4-methyl-5-oxopentyl}-3,5-dimethoxy-4-methyl-N-(3-phenylpropyl)benzamide], in assay [1], the IC50 worked out at 99 nM and the Emax amounted to 99%. Further, in assay [2], half-maximal inhibition (IC50) was put at 79 nM and the Emax was found to be 88%.

In the case of `COc1cc(C(=O)N(CCCc2ccccc2)CCCC(C)(C)C(=O)NS(C)(=O)=O)cc(OC)c1C` [Example 162, N-{5-[(methanesulfonyl)amino]-4,4-dimethyl-5-oxopentyl}-3,5-dimethoxy-4-methyl-N-(3-phenylpropyl)benzamide], in assay [1], the IC50 was determined as 76 nM and the Emax was found to be 100%. Moreover, in assay [2], the IC50 was 7 nM and the Emax is 94%.

As to `COc1cc(C(=O)N(CCCc2ccccc2)CCCC(O)C(=O)O)cc(OC)c1C1CC1` (centres unmarked) [Example 165, 5-[(4-cyclopropyl-3,5-dimethoxybenzoyl)(3-phenylpropyl)amino]-2-hydroxypentanoic Acid], in assay [1], the IC50 is 45 nM and the Emax amounted to 83%. In assay [2], the concentration for half-maximal inhibition (IC50) is 2730 nM and the Emax amounted to 70%.

Regarding `COc1cc(C(=O)N(CCCCc2nnn[nH]2)CCCc2ccccc2)cc(OC)c1C` [Example 166, 3,5-dimethoxy-4-methyl-N-(3-phenylpropyl)-N-[4-(1H-tetrazol-5-yl)butyl]benzamide], in assay [1], the half-inhibitory concentration (IC50) stood at 42 nM and the Emax is 96%. Further, in assay [2], half-maximal inhibition (IC50) required 1060 nM and the Emax is 80%.

Consider `Cc1ncc(Cl)c(C(=O)N(CCCCC(=O)O)CCCc2ccccc2)n1` [Example 167, 5-[(5-chloro-2-methylpyrimidine-4-carbonyl)(3-phenylpropyl)amino]pentanoic Acid], for which, in assay [1], the IC50 is 635 nM and the Emax worked out at 58%. Further, in assay [2], the IC50 was over 10000 nM and the Emax turned out to be 25%.

Consider `O=C(O)CCCCN(CCCc1ccccc1)C(=O)C1CC(=O)Nc2cc(F)ccc21` (centres unmarked) [Example 170, 5-[(7-fluoro-2-oxo-1,2,3,4-tetrahydroquinoline-4-carbonyl)(3-phenylpropyl)amino]pentanoic Acid], for which, in assay [1], the IC50 worked out at 333 nM and the Emax worked out at 81%. In assay [2], the half-maximal inhibitory concentration (IC50) was over 10000 nM and the Emax came out at 50%.

In the case of `CC(=O)Nc1cc(C(=O)N(CCCCC(=O)O)CCCc2ccccc2)ccn1` [Example 171, 5-[(2-acetamidopyridine-4-carbonyl)(3-phenylpropyl)amino]pentanoic Acid], in assay [1], the IC50 was found to be 933 nM and the Emax came out at 70%. In assay [2], the IC50 was over 2180 nM and the Emax stood at 30%.

Consider `CCOc1cc(OCC)cc(C(=O)N(CCCCC(=O)O)CCCc2ccc(C)o2)c1` [Example 176, 5-{(3,5-diethoxybenzoyl)[3-(5-methylfuran-2-yl)propyl]amino}pentanoic Acid], for which, in assay [1], the concentration for half-maximal inhibition (IC50) is 84 nM and the Emax is 64%. In assay [2], the half-maximal inhibitory concentration (IC50) was over 8190 nM and the Emax turned out to be 53%.

As to `COc1cc(C(=O)N(CCCc2ccc(C)o2)CCCC(C)C(=O)O)cc(OC)c1C` (centres unmarked) [Example 179, 5-{(3,5-dimethoxy-4-methylbenzoyl)[3-(5-methylfuran-2-yl)propyl]amino}-2-methylpentanoic Acid], in assay [1], the IC50 was 46 nM and the Emax was 97%. In assay [2], the IC50 came out at 1980 nM and the Emax turned out to be 74%.

For the molecule `COc1cc(C(=O)N(CCCc2ccc(C)o2)CCCC(C)(C)C(=O)O)cc(OC)c1C` [Example 180, 5-{(3,5-dimethoxy-4-methylbenzoyl)[3-(5-methylfuran-2-yl)propyl]amino}-2,2-dimethylpentanoic Acid], the IC50 in assay [1] came to 48 nM; in assay [2], 105 nM. For the same molecule, the Emax is 100% in assay [1] and 93% in assay [2].

As a reminder, the IC50 is the concentration that gives 50% inhibition.
